The values below come from patent US20040063696A1, “1,1-dioxo-2h-1,2-benzothiazine-3-carboxamide derivatives,method for preparing same and pharmaceutical compositions comprising same” (priority 2000, published 2004).

In the experiment the test system is aggrecan. Briefly: Expression of aggrecan in articular chondrocytes treated with IL-1 (Northern blot). The following applies: calf articular chondrocytes, compared with cultures treated with 10 ng/ml of IL-1. The experiment is classed as cell-based. The protocol: The expression of aggrecan was analysed by Northern blot. Total RNA of cultures of calf articular chondrocytes (CAC) cultured in DMEM+10% FCS and treated with different concentrations of the test compounds, in the presence of IL-1 (10 ng/ml), were extracted, 10 μg of the total RNA were fractionated by electrophoresis on a 1% agarose gel in the presence of an MOPS-formaldehyde buffer, transferred to a nylon membrane and hybridised with a specific aggrecan cDNA probe.

As for `CC[N+](C)(CC)CCCNC(=O)C1=C(O)c2ccccc2S(=O)(=O)N1C.[I-]` [Example 1, {3-[(4-Hydroxy-2-methyl-1,1-dioxo-2H-1,2-benzothiazin-3-yl)-carbonylamino]propyl}diethylmethylammonium iodide], the “stimulation of the expression of aggrecan” value was determined as 150% (10^−6 M) and 200% (10^−M (so in the source)).
